The source of these data is patent US4866046A, “Low-dosage sublingual aspirin” (Top Laboratories, Inc., priority 1988, dated 1989).

The subject of one assay is Cyclooxygenase. The assay is described as follows: Cyclooxygenase inhibition in volunteers after daily aspirin tablets. It is filed as in vivo, human.
The test system of assay [1] is Platelet Aggregation. Particulars: dose of 325 mg/day, in some people; cited from earlier work.
For assay [2], the system named is Platelet Aggregation. The assay is described as follows: Platelet aggregation inhibition in volunteers, thrombin as aggregating agent. Type of assay: in vivo, human. Particulars: daily dose, average (range). The protocol: Platelet aggregation was measured against thrombin as aggregating agent. Tablets were all similarly made as described in Example 1.

Molecules are shown by their SMILES.

On to `CC(=O)Oc1ccccc1C(=O)O` [Aspirin, acetylsalicylic acid], for which the “% Inhibition, after 5-7 days, of Cyclooxygenase” value in the assay on Cyclooxygenase (10 mg. tablet, swallowed, average (range) of volunteers) was 55.6 (11-95) %; in the assay on Cyclooxygenase (20 mg. sublingual tablet, average (range)), 83.3 (75-94) %; with Cyclooxygenase (80 mg. sublingual tablet (tablet of Example 1), average (range)) it was 99.0 (95-100) %; in the assay with Cyclooxygenase (80 mg. tablet, swallowed, average (range)), 76.3 (13-100) %; in the assay with Cyclooxygenase (325 mg tablet, swallowed, average (range)), 97.7 (25-100) %; in the assay with Cyclooxygenase (325 mg. sublingual tablet, average) it was 100.0%. For the same molecule, the inhibit platelet aggregation in the assay with Platelet Aggregation [1] is on record as 90%. The “% Inhibition, after 5-7 days, of Platelet Aggregation” value in the assay on Platelet Aggregation [2] (10 mg. tablet, swallowed) is given as 27.5 (0-87) %; in the assay with Platelet Aggregation [2] (20 mg. sublingual tablet), 45.3 (35-60) %; in the assay with Platelet Aggregation [2] (80 mg. sublingual tablet (tablet of Example 1)) it was 95.7 (88-100) %; with Platelet Aggregation [2] (80 mg. tablet, swallowed), 44.2 (5-98) %; with Platelet Aggregation [2] (325 mg. sublingual tablet), 78.5 (62-98) %. Moreover, the inhibition at 325 mg in the assay with Platelet Aggregation [2] (Homo sapiens, Platelet, 325 mg tablet, swallowed, read-out: % Inhibition, after 5-7 days, of Platelet Aggregation) amounted to 70%.
